Measurements: US4092431A, “Pharmaceutical composition and method of the use thereof” (Chugai Seiyaku Kabushiki Kaisha, priority 1977, dated 1978)

Columns and labels:
stress-induced ulcer = test: Inhibitory action on stress-induced ulcer formation; assay type: in vivo, Sprague-Dawley strain male rats; settings: oral; for dose dependence of inhibiting action on ulcer formation: 30 mg/kg and above; for Ulcer Index (mean value ± standard deviation): Ulcer Index = a + b/10, control 6.1 ± 2.3; for Number of Ulcers/Stomach, 3 mm or larger: control 1.3; for Number of Ulcers/Stomach, up to 3 mm: control 45.6; for Percent Inhibition: ulcer index
Method: Sprague-Dawley strain male rats weighing 200-250 g were deprived of food for 24 hours, and then laid down on their backs on a screen and fixed by fastening their limbs with a strand. The fixed rats were submerged in water bath to the depth of ensiform process with their hind legs dipped first. Sixteen hours after the submerge, the rats were brought out from the bath and their stomachs were taken out. After light fixation with a 1% formalin aqueous solution, the stomach of each animal was cut open along their greater curvature and gastric mucosa was observed through a dissecting microscope. The ulcer was evaluated on an ulcer index calculated from the following equation: […]
wherein a is the number of big ulcers more than 3 mm in diameter and b is the number of small ulcers up to 3 mm in diameter.
A test compound was orally administered as a suspension in a 1% gum arabic aqueous solution, 10 minutes before exposure to stress.

pylorus ligature ulcer = test: Protective action on pylorus ligature ulcer formation; assay type: in vivo, Sprague-Dawley strain male rats; settings: for Death Rate / Perforating Ulcers / Ulcer Index (mean value ± standard deviation) / Percent Inhibition: in the duodenum; for Ulcer Index (mean value ± standard deviation): scale 0 to 5, control 4.0 ± 1.3; for Percent Inhibition: ulcer index
Method: The pylorus of Sprague-Dawley strain male rats weighing 150-200 g that had abstained from food, but not water for 48 hours was ligatured under ether anethsia. Each rat was allowed to stand individually in a cage for 16 hours without food and water. At the end of this term, the rats were sacrificed by an overdose of diethyl ether. The stomach was taken out of each animal and the gastric mucosa was obserbed by the use of a dissecting microscope.
Ulcers observed in the gastric mucosa were evaluated on a scale of from 0 to 5 defined as follows.
0: No lesion was observed.
1: Hemorrhage and/or erosion were observed.
2: One to five small ulcers less than 3 mm in diameter were observed.
3: Six or more small ulcers and/or a large ulcer more than 3 mm in diameter were observed.
4: Two or more large ulcers were observed.
5: At least one perforating ulcer was observed.
A test compound was administered as an aqueous solution in an equivalent molar of hydrochloric acid in the duodenum immediately after the pylorus ligature.

acetic acid ulcer = test: Action on the healing of acetic acid ulcers; assay type: in vivo, Sprague-Dawley strain male rats; settings: oral; for Percent healing Rate / Ulcer Index (mean number ± standard deviation), product of major and minor axis: once a day for 15 days; for Ulcer Index (mean number ± standard deviation), product of major and minor axis: control 12.5 ± 6.0
Method: Sprague-Dawley strain male rate (8 weeks old) were etherized and their abdominal parts were cut open. A 20% acetic acid aqueous solution (0.05 ml) was injected into subserosal layer in the glandular part of stomach of each rat and the incisions were sutured.
From the fourth day after the operation, each rat was orally administered with 1-(3'-dimethylaminopropoxy)-2,4-bis(3"-methylbenzamido)-benzene in a dose of 10 mg/kg or 40 mg/kg. body weight as an aqueous solution in an equivalent molar of hydrochloric acid once a day for 15 days. On the day after the last administration, the rats were sacrificed by an overdose of diethyl ether and the stomach of each of the rats was taken out. After light fixation of the stomach with a 1% formalin solution, it was cut open along the greater curvature and the gastric mucosa was observed through a dissecting microscope. The ulcer was evaluated as the product (mm^2) of the major axis and the minor axis of the ulcer.

Acute toxicity in mice = settings: mouse, in vivo, po

Structure (SMILES)	dose dependence of inhibiting action on ulcer formation (stress-induced ulcer)	inhibition of the formation of ulcer (stress-induced ulcer; 30 mg/kg body weight)	Ulcer Index (mean value ± standard deviation) (stress-induced ulcer; 30 mg/kg)	Number of Ulcers/Stomach, 3 mm or larger (stress-induced ulcer; 30 mg/kg)	Number of Ulcers/Stomach, up to 3 mm (stress-induced ulcer; 30 mg/kg)	Percent Inhibition (stress-induced ulcer; 30 mg/kg) [%]	Ulcer Index (mean value ± standard deviation) (stress-induced ulcer; 45 mg/kg)	Number of Ulcers/Stomach, 3 mm or larger (stress-induced ulcer; 45 mg/kg)	Number of Ulcers/Stomach, up to 3 mm (stress-induced ulcer; 45 mg/kg)	Percent Inhibition (stress-induced ulcer; 45 mg/kg) [%]	Ulcer Index (mean value ± standard deviation) (stress-induced ulcer; 67 mg/kg)	Number of Ulcers/Stomach, 3 mm or larger (stress-induced ulcer; 67 mg/kg)	Ulcer Index (mean value ± standard deviation) (stress-induced ulcer; 100 mg/kg)	Number of Ulcers/Stomach, 3 mm or larger (stress-induced ulcer; 100 mg/kg)	Number of Ulcers/Stomach, up to 3 mm (stress-induced ulcer; 100 mg/kg)	Percent Inhibition (stress-induced ulcer; 100 mg/kg) [%]	Death Rate (pylorus ligature ulcer; 200 mg/kg) [%]	Perforating Ulcers (pylorus ligature ulcer; 200 mg/kg) [%]	Ulcer Index (mean value ± standard deviation) (pylorus ligature ulcer; 200 mg/kg)	Percent Inhibition (pylorus ligature ulcer; 200 mg/kg) [%]	further results
Cc1ccccc1C(=O)Nc1ccc(OCCCN(C)C)c(NC(=O)c2ccccc2C)c1 [1-(3'-dimethylaminopropoxy)-2,4-bis(2"-methylbenzamido)-benzene]	inhibiting action increases as the dose level heightens	50-60%	2.8 ± 0.8	0.6	23.4	54	2.0 ± 0.6	0.2	16.8	67	1.0 ± 0.9	0.2	0.4 ± 0.5	0	3.8	93	0	0	0	100	Number of Ulcers/Stomach, up to 3 mm (stress-induced ulcer; 67 mg/kg): 8.8; Percent Inhibition (stress-induced ulcer; 67 mg/kg): 84%; Death Rate (pylorus ligature ulcer; 50 mg/kg): 20%; Perforating Ulcers (pylorus ligature ulcer; 50 mg/kg): 20%; Ulcer Index (mean value ± standard deviation) (pylorus ligature ulcer; 50 mg/kg): 3.2 ± 1.3; Percent Inhibition (pylorus ligature ulcer; 50 mg/kg): 20%; inhibition of death of rats and formation of perforating ulcers (pylorus ligature ulcer; 100 mg/kg or 200 mg/kg): completely inhibited the death of rats and the formation of perforating ulcers; prevention of formation of gastric ulcers (pylorus ligature ulcer; 100 mg/kg or 200 mg/kg): prevented the formation of gastric ulcers on a statistically significant level; Death Rate (pylorus ligature ulcer; 100 mg/kg): 0%; Perforating Ulcers (pylorus ligature ulcer; 100 mg/kg): 0%; Ulcer Index (mean value ± standard deviation) (pylorus ligature ulcer; 100 mg/kg): 2.6 ± 0.5; Percent Inhibition (pylorus ligature ulcer; 100 mg/kg): 35%
Cc1cccc(C(=O)Nc2ccc(OCCCN(C)C)c(NC(=O)c3cccc(C)c3)c2)c1 [1-(3'-dimethylaminopropoxy)-2,4-bis(3"-methylbenzamido)-benzene]	inhibiting action increases as the dose level heightens	50-60%	2.6 ± 2.1	0.5	21.4	57	2.0 ± 1.7	1.0	8.7	67	1.5 ± 2.7	0.8	2.0 ± 2.1	0.8	10.6	67	0	0	1.0 ± 1.1	75	Number of Ulcers/Stomach, up to 3 mm (stress-induced ulcer; 67 mg/kg): 7.3; Percent Inhibition (stress-induced ulcer; 67 mg/kg): 75%; ulcer index in comparison with control (acetic acid ulcer; 10 mg/kg and 40 mg/kg): on a statistically significant lower level in comparison with those of the control; Percent healing Rate (acetic acid ulcer; 10 mg/kg): 45%; Ulcer Index (mean number ± standard deviation), product of major and minor axis (acetic acid ulcer; 10 mg/kg): 6.9 ± 5.6 mm^2; Percent healing Rate (acetic acid ulcer; 40 mg/kg): 42%; Ulcer Index (mean number ± standard deviation), product of major and minor axis (acetic acid ulcer; 40 mg/kg): 7.2 ± 5.1 mm^2; Death Rate (pylorus ligature ulcer; 50 mg/kg): 33%; Perforating Ulcers (pylorus ligature ulcer; 50 mg/kg): 50%; Ulcer Index (mean value ± standard deviation) (pylorus ligature ulcer; 50 mg/kg): 4.0 ± 1.1; Percent Inhibition (pylorus ligature ulcer; 50 mg/kg): 0%; inhibition of death of rats and formation of perforating ulcers (pylorus ligature ulcer; 100 mg/kg or 200 mg/kg): completely inhibited the death of rats and the formation of perforating ulcers; prevention of formation of gastric ulcers (pylorus ligature ulcer; 100 mg/kg or 200 mg/kg): prevented the formation of gastric ulcers on a statistically significant level; Death Rate (pylorus ligature ulcer; 100 mg/kg): 0%; Perforating Ulcers (pylorus ligature ulcer; 100 mg/kg): 0%; Ulcer Index (mean value ± standard deviation) (pylorus ligature ulcer; 100 mg/kg): 2.0 ± 1.4; Percent Inhibition (pylorus ligature ulcer; 100 mg/kg): 50%
Cc1ccccc1C(=O)Nc1ccc(C(=O)NCCCN(C)C)c(NC(=O)c2ccccc2C)c1 [1-[N-(3'-dimethylaminopropyl)-carbamoyl]-2,4-bis(2"-methylbenzamido)-benzene]	–	–	–	–	–	–	–	–	–	–	–	–	3.0 ± 1.0	0.8	23.4	51	0	0	1.4 ± 1.4	65	inhibition of the formation of ulcer (stress-induced ulcer; 100 mg/kg body weight): 50-60%; LD50 (Acute toxicity in mice): > 11000 mg/kg; inhibition of death of rats and formation of perforating ulcers (pylorus ligature ulcer; 200 mg/kg): completely inhibited the death of rats and the formation of perforating ulcers; prevention of formation of gastric ulcers (pylorus ligature ulcer; 200 mg/kg): prevented the formation of gastric ulcers on a statistically significant level
Cc1cccc(C(=O)Nc2ccc(C(=O)NCCCN(C)C)c(NC(=O)c3cccc(C)c3)c2)c1 [1-[N-(3'-dimethylaminopropyl)-carbamoyl]-2,4-bis(3"-methylbenzamido)-benzene]	–	–	–	–	–	–	–	–	–	–	–	–	2.4 ± 2.1	0.6	17.6	61	0	0	2.5 ± 1.4	38	inhibition of the formation of ulcer (stress-induced ulcer; 100 mg/kg body weight): 50-60%; inhibition of death of rats and formation of perforating ulcers (pylorus ligature ulcer; 200 mg/kg): completely inhibited the death of rats and the formation of perforating ulcers; prevention of formation of gastric ulcers (pylorus ligature ulcer; 200 mg/kg): prevented the formation of gastric ulcers on a statistically significant level
